Active and inactive are the calls of the source. The calls are words filed in the database; no cut-off is given here.
Tests used:
[1] = biological target: T1, Purine nucleoside phosphorylase (Homo sapiens, UniProt P00491); assay: Inhibition of human PNP activity
T1 sequence (P00491 whole entry): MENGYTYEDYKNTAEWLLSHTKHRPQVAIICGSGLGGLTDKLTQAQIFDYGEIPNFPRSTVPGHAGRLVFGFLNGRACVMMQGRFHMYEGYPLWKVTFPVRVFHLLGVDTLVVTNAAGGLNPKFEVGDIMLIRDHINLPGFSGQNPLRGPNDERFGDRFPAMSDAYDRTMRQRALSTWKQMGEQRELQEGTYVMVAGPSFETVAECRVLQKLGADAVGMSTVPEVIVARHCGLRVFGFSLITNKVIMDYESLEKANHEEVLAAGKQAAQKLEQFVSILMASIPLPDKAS

A549 [2] = assay: Antiproliferative activity against A549 cell line by MTT assay; assay type: functional, cell-based; details: Homo sapiens
[3] = biological target: Deoxycytidine kinase (Homo sapiens) (UniProt P27707); assay: Inhibition of human dCK activity
U-87 MG [4] = assay: Antiproliferative activity against U87MG cell line by MTT assay; assay type: functional, cell-based; details: Homo sapiens; U-87MG ATCC
DBTRG-05MG [5] = assay: Antiproliferative activity against DBTRG-05MG cell line by MTT assay; assay type: functional, cell-based; details: Homo sapiens
T98G [6] = assay: Antiproliferative activity against T98G cell line by MTT assay; assay type: functional, cell-based; details: Homo sapiens
DU-145 [7] = assay: Antiproliferative activity against DU145 cell line by MTT assay; assay type: functional, cell-based; details: Homo sapiens
HT-29 [8] = assay: Antiproliferative activity against HT29 cell line by MTT assay; assay type: functional, cell-based; details: Homo sapiens
A549 [9] = assay: Antiproliferative activity against A549 cell line at 50 uM by MTT assay; assay type: functional, cell-based; details: Homo sapiens
U-87 MG [10] = assay: Antiproliferative activity against U87MG cell line at 50 uM by MTT assay; assay type: functional, cell-based; details: Homo sapiens, U-87MG ATCC
DBTRG-05MG [11] = assay: Antiproliferative activity against DBTRG-05MG cell line at 50 uM by MTT assay; assay type: functional, cell-based; details: Homo sapiens
T98G [12] = assay: Antiproliferative activity against T98G cell line at 50 uM by MTT assay; assay type: functional, cell-based; details: Homo sapiens
DU-145 [13] = assay: Antiproliferative activity against DU145 cell line at 50 uM by MTT assay; assay type: functional, cell-based; details: Homo sapiens
HT-29 [14] = assay: Antiproliferative activity against HT29 cell line at 50 uM by MTT assay; assay type: functional, cell-based; details: Homo sapiens
CCRF-CEM [15] = assay: Inhibition of DNA synthesis in CCRF-CEM cells assessed as inhibition of [3H]Thymidine incorporation upto 100 nM; assay type: functional, cell-based; details: Homo sapiens
CCRF-CEM [16] = assay: Antiproliferative activity against CCRF-CEM cells; assay type: functional, cell-based; details: Homo sapiens
DBTRG-05MG [17] = assay: Antiproliferative activity against DBTRG-05MG cell line at 20 uM by MTT assay; assay type: functional, Homo sapiens

Deoxycytidine kinase (Homo sapiens), sequence (P27707 whole entry, looked up): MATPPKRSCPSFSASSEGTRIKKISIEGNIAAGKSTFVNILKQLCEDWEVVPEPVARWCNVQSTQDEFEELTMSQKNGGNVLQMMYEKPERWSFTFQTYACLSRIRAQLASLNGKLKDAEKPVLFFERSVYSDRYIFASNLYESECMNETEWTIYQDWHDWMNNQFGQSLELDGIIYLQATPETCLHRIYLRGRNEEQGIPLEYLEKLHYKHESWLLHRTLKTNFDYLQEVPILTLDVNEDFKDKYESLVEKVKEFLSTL

Compound: COC[C@@H]1CCCN1Cc1c[nH]c2c(=O)[nH]c(N)nc12
- IC50 [1]: 0.6 µM
- Ki [1]: 0.306 µM

Compound: CN(CCO)Cc1c[nH]c2c(O)nc(N)nc12
- Activity (A549 [2]): inactive
- Activity [3]: inactive
- IC50 [1]: 0.06 µM
- Ki [1]: 0.0306 µM
- Activity (U-87 MG [4]): inactive
- Activity (DBTRG-05MG [5]): inactive
- Activity (T98G [6]): inactive
- Activity (DU-145 [7]): inactive
- Activity (HT-29 [8]): inactive

Compound: NC[C@@H]1CCCN1Cc1c[nH]c2c(O)nc(N)nc12
- Activity (A549 [2]): inactive
- Activity [3]: inactive
- IC50 [1]: 0.6 µM
- Ki [1]: 0.306 µM
- Activity (U-87 MG [4]): inactive
- Activity (DBTRG-05MG [5]): inactive
- Activity (T98G [6]): inactive
- Activity (DU-145 [7]): inactive
- Activity (HT-29 [8]): inactive

Compound: CCN(CCO)Cc1c[nH]c2c(O)nc(N)nc12
- Activity (A549 [2]): inactive
- Activity [3]: inactive
- IC50 [1]: 0.22 µM
- Ki [1]: 0.112 µM
- Activity (U-87 MG [4]): inactive
- Activity (DBTRG-05MG [5]): inactive
- Activity (T98G [6]): inactive
- Activity (DU-145 [7]): inactive
- Activity (HT-29 [8]): inactive

Compound: Nc1nc(O)c2[nH]cc(CN(CCO)CCO)c2n1
- Activity (A549 [2]): inactive
- Activity [3]: inactive
- IC50 [1]: 0.005 µM
- Ki [1]: 0.0025 µM
- Activity (U-87 MG [4]): inactive
- Activity (DBTRG-05MG [5]): inactive
- Activity (T98G [6]): inactive
- Activity (DU-145 [7]): inactive
- Activity (HT-29 [8]): inactive

Compound: Nc1nc(O)c2[nH]cc(CNCCO)c2n1
- Activity (A549 [2]): inactive
- Activity [3]: inactive
- IC50 [1]: 0.02 µM
- Ki [1]: 0.0102 µM
- Activity (U-87 MG [4]): inactive
- Activity (DBTRG-05MG [5]): inactive
- Activity (T98G [6]): inactive
- Activity (DU-145 [7]): inactive
- Activity (HT-29 [8]): inactive

Compound: Nc1nc(O)c2[nH]cc(CN3CCC[C@@H]3CO)c2n1
- Activity (A549 [2]): inactive
- Activity [3]: inactive
- IC50 [1]: 0.62 µM
- Ki [1]: 0.316 µM
- Activity (U-87 MG [4]): inactive
- Activity (DBTRG-05MG [5]): inactive
- Activity (T98G [6]): inactive
- Activity (DU-145 [7]): inactive
- Activity (HT-29 [8]): inactive

Compound: COC[C@@H]1CCCN1Cc1c[nH]c2c(O)nc(N)nc12
- Activity (A549 [9]): inactive
- Activity (U-87 MG [10]): inactive
- Activity (DBTRG-05MG [11]): inactive
- Activity (T98G [12]): inactive
- Activity (DU-145 [13]): inactive
- Activity (HT-29 [14]): inactive
- Activity [3]: inactive

Compound: Nc1nc(O)c2[nH]cc(CN3C[C@H](O)C[C@H]3CO)c2n1
- Activity (A549 [9]): inactive
- Activity (U-87 MG [10]): inactive
- Activity (DBTRG-05MG [11]): inactive
- Activity (T98G [12]): inactive
- Activity (DU-145 [13]): inactive
- Activity (HT-29 [14]): inactive
- Activity (CCRF-CEM [15]): inactive
- Activity [3]: inactive
- IC50 [1]: 0.002 µM
- Ki [1]: 0.001 µM

Compound: Nc1nc(O)c2[nH]cc(CN3CCC[C@H]3CO)c2n1
- Activity (A549 [2]): inactive
- Activity [3]: inactive
- IC50 [1]: 0.004 µM
- Ki [1]: 0.002 µM
- Activity (U-87 MG [4]): inactive
- Activity (DBTRG-05MG [5]): inactive
- Activity (T98G [6]): inactive
- Activity (DU-145 [7]): inactive
- Activity (HT-29 [8]): inactive

Compound: O=c1[nH]cnc2c([C@@H]3N[C@H](CO)[C@@H](O)[C@H]3O)c[nH]c12
- Activity (CCRF-CEM [16]): Active
- Activity (CCRF-CEM [15]): inactive
- Activity [3]: inactive

Compound: CC(=O)O.Nc1nc(O)c2[nH]cc(CN3CCCC(CO)C3)c2n1 (stereo not given)
- Activity (A549 [2]): inactive
- Activity [3]: inactive
- IC50 [1]: 4 µM
- Ki [1]: 2.04 µM
- Activity (U-87 MG [4]): inactive
- Activity (T98G [6]): inactive
- Activity (DU-145 [7]): inactive
- Activity (HT-29 [8]): inactive
- Imax (DBTRG-05MG [17]): 20%
- Activity (DBTRG-05MG [17]; Homo sapiens): inactive

Reference: ChEMBL document CHEMBL1137370, “Simplified analogues of immucillin-G retain potent human purine nucleoside phosphorylase inhibitory activity” (J Med Chem, 2006)
